Test results reported in patent US20250032506A1, “GLUCOCORTICOID RECEPTOR BLOCKADE WITH MIFEPRISTONE TO SENSITIZE PANCREATIC CANCER TO IMMUNOTHERAPY” (BOARD OF REGENTS, THE UNIVERSITY OF TEXAS SYSTEM, priority 2021, published 2025).

What was measured:
[1] = system: SU86.86 cells; experiment: qPCR, immunoblotting and flow cytometry of PD-L1 and MHC-I pathway expression in SU86.86 cells; format: cell-based, human
Experimental: (§1) (See Bardeesy, N., et al. supra). The human PDAC cell lines SU86.86 ([…]), SW1990 ([…]), BXPC-3 ([…]), Miapaca-2 ([…]), Capan-1 ([…]), ASPC-1 ([…]), Hs766T ([…]), Colo357/FG ([…]), L3.6PL ([…]), Panc28 ([…]), Capan-2 ([…]), CF-Pac-1 ([…]), Panc3 (sex unknown), Panc1 ([…]), Panc48 (sex unknown), and HPAC ([…]) were from Mien-Chie Hung's lab stock. […] The BXPC-3, Miapaca-2, Capan-1, ASPC-1, Colo357/FG, L3.6PL, Panc28, Capan-2, CF-Pac-1, Panc3, Panc1, Panc48, and HPAC cell lines were cultured in DMEM/F-12 (Corning, 10-092-CV) supplemented with 10% FBS and 1% penicillin/streptomycin. Cells were grown in a humidified incubator with 5% CO2 at 37° C., and low-passage stocks were maintained in a centralized lab cell bank. Short tandem repeat profiling and mycoplasma tests were done by the Cytogenetics and Cell Authentication Core at MD Anderson Cancer Center.
(§2) Membranes were blocked with 10% non-fat milk in TBST and incubated with the primary antibody at 4° C. overnight, followed by incubation with the secondary antibody conjugated with horseradish peroxidase (HRP).

[2] = system: orthotopic HY24160 tumors
Experimental: (§3) Orthotopic pancreatic tumor size was determined by MRI. Subcutaneous tumor size was measured with a caliper. […] Animal body weight was measured throughout the study.

[3] = system: orthotopic HY24409 tumors; experiment: CyTOF, flow cytometry, qPCR and multiplex immunofluorescent staining of orthotopic HY24409 tumors; format: in vivo, mouse
Experimental: (§4) Cancer Discov 10, 1374-1387 (2020). […] CyTOF data were analyzed by FlowJo and Cytobank.
(§5) Immunity 54, 1561-1577 e1567 (2021).

[4] = system: orthotopic HY24409 tumors; experiment: Immune checkpoint blockade experiments in male C57BL/6 mice bearing orthotopic HY24409 tumors; format: in vivo, mouse; conditions: compared with the vehicle+IgG control
Experimental: as §3

[5] = system: orthotopic HY24409 tumors; experiment: Flow cytometric analysis and multiplex immunofluorescent staining of tumors or spleens from mice treated with mifepristone and dual ICB; format: in vivo, mouse
Experimental: as §4, §5

[6] = system: SW1990 cells; experiment: qPCR, immunoblotting and flow cytometry of PD-L1 and MHC-I pathway expression in SW1990 cells; format: cell-based, human
Experimental: as §1, §2

[7] = system: HY19636 cells; experiment: qPCR and flow cytometry of PD-L1, MHC-I and B2M in HY19636 cells; format: cell-based, mouse; conditions: MIFE 20 μM, 48 h
Source text: The male PDAC cell lines HY24409 and HY24160 and the female PDAC cell line HY19636 were established from KPC mice (p48-Cre; Kras^LSL-G12D/+; Trp53^loxP/+) that were backcrossed to a C57BL/6 background (purity: ˜ 98%). (See Bardeesy, N., et al. supra). The human PDAC cell lines SU86.86 ([…]), SW1990 ([…]), BXPC-3 ([…]), Miapaca-2 ([…]), Capan-1 ([…]), ASPC-1 ([…]), Hs766T ([…]), Colo357/FG ([…]), L3.6PL ([…]), Panc28 ([…]), Capan-2 ([…]), CF-Pac-1 ([…]), Panc3 (sex unknown), Panc1 ([…]), Panc48 (sex unknown), and HPAC ([…]) were from Mien-Chie Hung's lab stock. The HY24409, HY24160, HY19636, SU86.86, SW1990, and Hs766T cell lines were cultured in RPMI 1640 (Corning, 10-041-CV) supplemented with 10% fetal bovine serum (FBS) (Gibco, 10438-034) and 1% penicillin/streptomycin (Sigma, P4333). The BXPC-3, Miapaca-2, Capan-1, ASPC-1, Colo357/FG, L3.6PL, Panc28, Capan-2, CF-Pac-1, Panc3, Panc1, Panc48, and HPAC cell lines were cultured in DMEM/F-12 (Corning, 10-092-CV) supplemented with 10% FBS and 1% penicillin/streptomycin. Cells were grown in a humidified incubator with 5% CO2 at 37° C., and low-passage stocks were maintained in a centralized lab cell bank. Short tandem repeat profiling and mycoplasma tests were done by the Cytogenetics and Cell Authentication Core at MD Anderson Cancer Center.
as §5

[8] = Western blot and flow cytometric analysis, MIFE 72 h
[9] = Western blot and flow cytometry, MIFE 72 h
[10] = flow cytometry and qPCR, HY24160 tumors
[11] = CyTOF, orthotopic HY24409 tumors, vs vehicle or control shRNA
[12] = flow cytometric analysis, HY24409 tumors
[13] = relative to the control group, either with or without co-treatment with dual ICB

In the case of `CC#C[C@]1(O)CC[C@H]2[C@@H]3CCC4=CC(=O)CCC4=C3[C@@H](c3ccc(N(C)C)cc3)C[C@@]21C` [mifepristone], the PD-L1 protein [1, 8] is reported as “downregulated”, the “MHC-I and B2M proteins” value [1, 9] is reported as “upregulation” and the “mRNA levels of components in the MHC-I pathway, including HLA-A, HLA-B, HLA-C, B2M, SEC61B, and SEC61G” value ([1]; qPCR, MIFE 20 μM, 72 h) is reported as “increased”. For the same compound, the “mRNA levels of immune checkpoint ligands, including PD-L1, CD47, TDO, and SIGLEC15” value ([1]; qPCR, MIFE 20 μM, 72 h) was “decreased”, the tumor growth ([2]; C57BL/6 mice, orthotopic HY24160, CTL-dependent manner) was “inhibited tumor growth” and the MHC-I expression levels [2, 10] was “upregulated”. For the same compound, the “expression levels of PD-L1 and known GR-activated genes” value [2, 10] was “downregulated”, the body weight ([2]; mouse, in vivo) was “without affecting body weight” and the “infiltration and activity of cytotoxic T cells” value ([2]; mouse, in vivo) was “promoted”. For the same compound, the “abundance of CD4+ T cells, regulatory T cells, natural killer cells, B cells, dendritic cells, macrophages, and myeloid-derived suppressor cells” value ([3]; CyTOF, orthotopic HY24409 tumors) was “No significant change”, the “increase in percentage of granzyme B+ CTLs” value [3, 11] was 1.6 fold and the “increase in percentage of tumor-infiltrating CD8+ cells” value [3, 11] was 1.9 fold. The “cell-surface MHC-I (H-2K^b) and B2M levels in pancreatic tumors” value [3, 12] was “higher”, the “cell-surface PD-L1 levels in pancreatic tumors” value [3, 12] was “lower” and the “expression levels of intracellular TNFα, IFNγ, and IL-2 in tumor-associated CD8+ cells” value ([3]; flow cytometry after ex vivo stimulation with PMA and ionomycin, HY24409 tumors) was “significantly increased”. For the same compound, the “surface levels of T cell exhaustion markers PD-1, Tim-3, and LAG-3” value ([3]; flow cytometry, CTLs in HY24409 pancreatic tumors) was “significant reduction”, the “multiplex immunofluorescent staining of CD3, CD8, and granzyme B in pancreatic tumors” value ([3]; mifepristone-treated C57BL/6 mice, HY24409) was “substantial enrichment” and the “mRNA levels of MHC-I components (H-2k, H-2d, and B2m) in tumors” value ([3]; qPCR, HY24409 tumors) was “upregulated”. The “mRNA levels of PD-L1 and known GR-activated target genes (Klf9, Snai2, and Fn1) in tumors” value ([3]; qPCR, HY24409 tumors) was “downregulated”, the survival [4] was “did not lead to a significant improvement in survival” and the “tumor infiltration by CD8+ T cells and granzyme B+ CTLs” value ([5]; flow cytometric analysis and multiplex immunofluorescent staining, HY24409 tumors) was “increase”. For the same compound, the “cell-surface MHC-I (H-2K^b) and B2M in tumor cells” value [5, 13] was “increase”, the “cell-surface PD-L1 in tumor cells” value [5, 13] was “decrease” and the PD-L1 protein [6, 8] was “downregulated”. The “MHC-I and B2M proteins” value [6, 9] was “upregulation”, the “mRNA levels of components in the MHC-I pathway, including HLA-A, HLA-B, HLA-C, B2M, SEC61B, and SEC61G” value ([6]; qPCR, MIFE 20 μM, 72 h) was “increased” and the “mRNA levels of immune checkpoint ligands, including PD-L1, CD47, TDO, and SIGLEC15” value ([6]; qPCR, MIFE 20 μM, 72 h) was “decreased”. The “MHC-I and B2M at mRNA and surface protein levels” value [7] was “upregulated” and the “PD-L1 at mRNA and surface protein levels” value [7] was “downregulated”.
